Earlier results, collected in US20230027192A1, “METHODS OF USING SOLUBLE SOLID DISPERSIONS OF RIFAXIMIN” (United States Government as Represented by the Department …, priority 2019, published 2023).

Experiments:
[1] = system: secondary/primary bile acid ratio; conditions: patients with compensated cirrhosis
[2] = system: hepatic encephalopathy (HE); conditions: in cirrhosis

CO[C@H]1/C=C/O[C@@]2(C)Oc3c(C)c(O)c4c(O)c(c5c(nc6cc(C)ccn65)c4c3C2=O)NC(=O)/C(C)=C\C=C\[C@H](C)[C@H](O)[C@@H](C)[C@@H](O)[C@@H](C)[C@H](OC(C)=O)[C@@H]1C [rifaximin]
secondary/primary bile acid ratio [1]: reduction
risk of HE recurrence and HE-related hospitalizations [2]: reduces the risk
